System: compound-treated mice
Assay: Neuropharmacological assay (SmartCube): behavioral activity signature and minimal effective dose
Type: in vivo
Conditions: for minimal effective dose: Mus musculus, ip, MED = dose having 50% or more total activity, read-out: Potency: minimal effective dose (MED); for AD: ADHD (probability of activity signature) / AG: analgesic (probability of activity signature) / AX: anxiolytic (probability of activity signature) / CE: cognitive enhancer (probability of activity signature) / DP: anti-depressant (probability of activity signature) / MS: mood stabilizer (probability of activity signature) / PS: anti-psychotic (probability of activity signature) / SD: sedative hypnotic (probability of activity signature) / UN: uncharacterized CNS activity (probability of activity signature): i.p. 15 min before test, most efficacious dose(s)
Outline: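 Mice dosed i.p. 15 min before test, compound in N-methyl-2-pyrrolidone/PEG/propylene glycol, 3 doses; video-captured behavior matched to reference-drug signatures, giving per-class probabilities at most efficacious dose. MED from doses typically 0.3–30 mpk, defined as lowest dose with ≥50% total activity.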

| SMILES | minimal effective dose [mg/kg] | AD: ADHD (probability of activity signature) | AG: analgesic (probability of activity signature) | AX: anxiolytic (probability of activity signature) | CE: cognitive enhancer (probability of activity signature) | DP: anti-depressant (probability of activity signature) | MS: mood stabilizer (probability of activity signature) | PS: anti-psychotic (probability of activity signature) | SD: sedative hypnotic (probability of activity signature) | UN: uncharacterized CNS activity (probability of activity signature) |
| --- | --- | --- | --- | --- | --- | --- | --- | --- | --- | --- |
| CCc1ccc2c(c1)C(N)COC2.Cl (centres unmarked) [Example 20, 6-Ethylisochroman-4-amine hydrochloride] | 3 to 10 | + (LOQ ≤ + <5%) | ++ (5% ≤ ++ <25%) | +++ (25% ≤ +++ <50%) | ++ (5% ≤ ++ <25%) | ++ (5% ≤ ++ <25%) | + (LOQ ≤ + <5%) | +++ (25% ≤ +++ <50%) | ++ (5% ≤ ++ <25%) | ++ (5% ≤ ++ <25%) |
| Cc1cccc2c1C(N)COC2.Cl (centres unmarked) [Example 21, 5-Methylisochroman-4-amine hydrochloride] | 3 to 10 | + (LOQ ≤ + <5%) | ++ (5% ≤ ++ <25%) | ++ (5% ≤ ++ <25%) | ++ (5% ≤ ++ <25%) | ++ (5% ≤ ++ <25%) | + (LOQ ≤ + <5%) | ++ (5% ≤ ++ <25%) | ++ (5% ≤ ++ <25%) | +++ (25% ≤ +++ <50%) |
| Cl.NC1COCc2cccc(F)c21 (centres unmarked) [Example 22] | 10 to 30 | + (LOQ ≤ + <5%) | ++ (5% ≤ ++ <25%) | ++ (5% ≤ ++ <25%) | ++ (5% ≤ ++ <25%) | ++ (5% ≤ ++ <25%) | + (LOQ ≤ + <5%) | ++ (5% ≤ ++ <25%) | + (LOQ ≤ + <5%) | +++ (25% ≤ +++ <50%) |
| Cl.NC1COCc2c(F)cccc21 (centres unmarked) [Example 23] | 10 to 30 | + (LOQ ≤ + <5%) | ++ (5% ≤ ++ <25%) | +++ (25% ≤ +++ <50%) | ++ (5% ≤ ++ <25%) | ++ (5% ≤ ++ <25%) | + (LOQ ≤ + <5%) | ++ (5% ≤ ++ <25%) | + (LOQ ≤ + <5%) | ++ (5% ≤ ++ <25%) |
| COc1cccc2c1COCC2N.Cl (centres unmarked) [Example 24] | 10 to 30 | + (LOQ ≤ + <5%) | + (LOQ ≤ + <5%) | ++ (5% ≤ ++ <25%) | + (LOQ ≤ + <5%) | ++ (5% ≤ ++ <25%) | + (LOQ ≤ + <5%) | ++ (5% ≤ ++ <25%) | ++ (5% ≤ ++ <25%) | + (LOQ ≤ + <5%) |
| COc1cccc2c1C(N)COC2.Cl (centres unmarked) [Example 25] | 10 to 30 | + (LOQ ≤ + <5%) | ++ (5% ≤ ++ <25%) | ++ (5% ≤ ++ <25%) | ++ (5% ≤ ++ <25%) | ++ (5% ≤ ++ <25%) | + (LOQ ≤ + <5%) | ++ (5% ≤ ++ <25%) | + (LOQ ≤ + <5%) | +++ (25% ≤ +++ <50%) |
| Cc1ccc2c(c1)C(N)COC2.Cl (centres unmarked) [Example 26] | < 3 | + (LOQ ≤ + <5%) | ++ (5% ≤ ++ <25%) | ++ (5% ≤ ++ <25%) | ++ (5% ≤ ++ <25%) | ++ (5% ≤ ++ <25%) | + (LOQ ≤ + <5%) | ++ (5% ≤ ++ <25%) | + (LOQ ≤ + <5%) | ++++ (50% ≤ ++++) |
| Cc1cccc2c1COCC2N.Cl (centres unmarked) [Example 27] | 3 to 10 | + (LOQ ≤ + <5%) | ++ (5% ≤ ++ <25%) | ++ (5% ≤ ++ <25%) | ++ (5% ≤ ++ <25%) | ++ (5% ≤ ++ <25%) | ++ (5% ≤ ++ <25%) | ++ (5% ≤ ++ <25%) | + (LOQ ≤ + <5%) | +++ (25% ≤ +++ <50%) |
| Cl.NC1COCc2cccc(Cl)c21 (centres unmarked) [Example 28] | 3 to 10 | + (LOQ ≤ + <5%) | ++ (5% ≤ ++ <25%) | ++ (5% ≤ ++ <25%) | ++ (5% ≤ ++ <25%) | ++ (5% ≤ ++ <25%) | + (LOQ ≤ + <5%) | ++ (5% ≤ ++ <25%) | + (LOQ ≤ + <5%) | +++ (25% ≤ +++ <50%) |
| CC1(C)OCC(N)c2ccccc21.Cl (centres unmarked) [Example 29] | 10 to 30 | + (LOQ ≤ + <5%) | +++ (25% ≤ +++ <50%) | ++ (5% ≤ ++ <25%) | + (LOQ ≤ + <5%) | ++ (5% ≤ ++ <25%) | + (LOQ ≤ + <5%) | + (LOQ ≤ + <5%) | + (LOQ ≤ + <5%) | + (LOQ ≤ + <5%) |
| Cl.NC1COCCc2ccccc21 (centres unmarked) [Example 30] | > 30 | + (LOQ ≤ + <5%) | ++ (5% ≤ ++ <25%) | + (LOQ ≤ + <5%) | + (LOQ ≤ + <5%) | + (LOQ ≤ + <5%) | + (LOQ ≤ + <5%) | + (LOQ ≤ + <5%) | + (LOQ ≤ + <5%) | + (LOQ ≤ + <5%) |

Reference: patent publication US11077090B2, “Compounds and compositions and uses thereof” (Sunovion Pharmaceuticals Inc., priority 2016, dated 2021)
